Reference: patent US9034398B2, “Traditional Chinese drug comprising Danshen extracts and Sanqi extracts and use thereof” (TASLY Pharmaceutical Group Co., LTD., priority 2009, dated 2015)

Test system: rat myocardial I/R model
Assay: Myocardial infarction area by TTC staining
Format: in vivo
Details: for infarction region on TTC-stained heart slices, in contrast to I/R group / inhibition of the increase of the myocardial infarction area percentage caused by I/R: 5 mg/kg BW/h intravenous drip, 60 min after reperfusion, FIG. 6A
Protocol: The rats were anesthetized by intramuscularly injecting 20 wt % urethane (1.25 g/kg) and fixed in the supine position. Neck skin was incised and anterior cervical muscles were separated to expose the trachea. Tracheal intubation was performed. Another end of the intubation was attached to a Small Animal Ventilator (ALC-V8, Shanghai Aoteshai Biology Science and Technology Limited Company, Shanghai, China) so as to carry out pressure breathing under the following conditions: a respiratory ratio of 1:1, a respiratory frequency of 75 times/min and a tidal volume of 12 mL/kg. The rectal temperature, measured with YSI REF 401 (Yellow Spring, Ohio, USA), was maintained at 37 37.5° C. by using a thermal blanket. The chest was sterilized and opened at the intercostal space between 2nd 4th ribs near the left and right sternal border to expose the heart. The 3⁄8 curved needle threaded with 3-0 suture was used to pass through the site at 1 2 mm below the juncture of the pulmonary artery cone and the left atrial appendage. The suture was ligated. A polyethylene tubule was placed between the silk suture and myocardial tissue, the silk suture was […] to cause ischemia. Ligature was released 30 min later to establish an I/R model. Danshensu+I/R group (DLA+I/R group): a Danshensu aqueous solution (in normal saline, 1.25 mg/ml) was administrated at a dosage of 5 mg/kg BW/h by intravenous drip 20 min before the experiment and continued until the end of the entire experiment. Notoginsenoside R1+I/R group (R1+I/R group): a Notoginsenoside R1 aqueous solution (in normal saline, 1.25 mg/ml) was administrated at a dosage of 5 mg/kg BW/h by intravenous drip 20 min before the experiment and continued until the end of the entire experiment. Danshensu:R1(4:1)+I/R group (DR(4:1)+I/R group): an aqueous solution of Danshensu and Notoginsenoside R1 at a weight ratio of 4:1, dissolved in normal saline (1.25 mg/ml, namely, in the solution, the concentration of Danshensu is 1 mg/ml and the concentration of Notoginsenoside R1 is 0.25 mg/ml), was administrated at a dosage of 5 mg/kg BW/h (namely, in the total dosage, the dosage of Danshensu is 4 mg/kg BW/h and the dosage of Notoginsenoside R1 is 1 mg/kg BW/h) by intravenous drip 20 min before the experiment and continued until the end of the entire experiment. Danshensu:R1 (1:1)+I/R group (DR(1:1)+IR group): an aqueous solution of Danshensu and Notoginsenoside R1 at a weight ratio of 1:1, dissolved in normal saline (1.25 mg/ml, namely, in the solution, the concentration of Danshensu is 0.625 mg/ml and the concentration of Notoginsenoside R1 is 0.625 mg/ml), was administrated at a dosage of 5 mg/kg BW/h (namely, in the total dosage, the dosage of Danshensu is 2.5 mg/kg BW/h and the dosage of Notoginsenoside R1 is 2.5 mg/kg BW/h) by intravenous drip 20 min before the experiment and continued until the end of the entire experiment. Danshensu:R1 (0.25:1)+I/R group (DR(0.25:1)+IR group): an aqueous solution of Danshensu and Notoginsenoside R1 at a weight ratio of 0.25:1, dissolved in normal saline (1.25 mg/ml, namely, in the solution, the concentration of Danshensu is 0.25 mg/ml and the concentration of Notoginsenoside R1 is 1.0 mg/ml), was administrated at a dosage of 5 mg/kg BW/h (namely, in the total dosage, the dosage of Danshensu is 1 mg/kg BW/h and the dosage of Notoginsenoside R1 is 4 mg/kg BW/h) by intravenous drip 20 min before the experiment and continued until the end of the entire experiment. […]

SMILES	infarction region on TTC-stained heart slices, in contrast to I/R group	inhibition of the increase of the myocardial infarction area percentage caused by I/R	reduction of the percentage of the myocardial infarction area after I/R (summary) (rats, summary statement of the description)
O=C(O)C(O)Cc1ccc(O)c(O)c1 (centres unmarked) [Danshensu, (3,4-dihydroxyphenyl)lactic acid]	decreased obviously	significantly suppress	can reduce
CC(C)=CCC[C@](C)(O[C@@H]1O[C@H](CO)[C@@H](O)[C@H](O)[C@H]1O)[C@H]1CC[C@]2(C)[C@@H]1[C@H](O)C[C@@H]1[C@@]3(C)CC[C@H](O)C(C)(C)[C@@H]3[C@@H](O[C@@H]3O[C@H](CO)[C@@H](O)[C@H](O)[C@H]3O[C@@H]3OC[C@@H](O)[C@H](O)[C@H]3O)C[C@]12C [Notoginsenoside R1]	decreased slightly	has not significantly inhibited	–
